What all share (format): in vivo
Assay [1] relates to Dermatophagoides farinae Hughes. Briefly: Mite repellent effect test (impregnated black paper). Particulars: mites counted after 15 minutes, vs acetone control. As to the method: The repellent effects of compounds shown in Table 1 were evaluated in accordance with the following method. 1. Mite (or mites) under test: Dermatophagoides farinae Hughes. 2. Testing method: Each test compound was diluted with acetone, black paper 2.5 cm square was impregnated with the diluted test compound in such a manner that the test compound is impregnated in a proportion of 100 μg or 1,000 μg per cm^2 and the black paper was air-dried under room temperature for 2 hours. Black paper treated with acetone alone was also provided as a control group. Mites grown at high density were transferred together with a medium to a glass batt (15×20 cm), and a sheet of gauze cut out in the same size was placed thereon. This medium was placed in a plastic closed container controlled at relative humidity of at least 85% with saturated brine and incubated at 25° C. Three sheets of the black paper treated with the test compound were arranged side by side at intervals of at least 5 mm on the gauze to count the number of the mites climbed up the front and back surfaces of the black paper after 15 minutes. This process was repeated 3 times to find an average value, and it was compared with the control group to calculate out a repelling rate in accordance with the following equation. Repelling rate={(A−B)/A}×100(%) wherein A is the number of mites climbed up in the control group, and B is the number of mites climbed up in the treated group.

For assay [2] the test system is unchanged. Briefly: Miticidal effect test (impregnated folded filter paper). The following applies: 1,000 μg per cm^2 on filter paper, 25° C. As to the method:
The miticidal effects of compounds shown in Table 2 were evaluated in accordance with the following method. • 1. Mite or Mites under test: Dermatophagoides farinae Hughes. • 2. Testing method:
Each test compound was diluted with acetone, filter paper 5×10 cm in size was impregnated with the diluted test compound in such a manner that the test compound is impregnated in a proportion of 1,000 μg per cm^2, and the filter paper was air-dried at room temperature for 2 hours. Filter paper treated with acetone alone was also provided as a control group. Each filter paper was folded in two, and 20 to 40 mites were freed therein to close the open portion with aclip in such a manner that the mites cannot escape. After the filter paper was incubated for 24 hours or 48 hours in an environment of 25° C. and relative humidity of at least 80%, the numbers of the living or dead mites are calculated through a stereoscopic microscope. This process was repeated 3 times to find an average lethality, and it was compared with the untreated group to calculate out a compensated lethality in accordance with the following equation. Compensated lethality={(Y−X)/(100−X)}×100 (%) wherein X is an average lethality in the control group, and Y is an average lethality in the treated group.

For assay [3] the test system is unchanged. Briefly: Mite growth inhibition test in treated medium. Particulars: for inhibition at 0.045 % strength: 0.045 % by weight in medium; for inhibition at 0.12 % strength: 0.12 % by weight in medium; for inhibition at 0.23 % strength: 0.23 % by weight in medium; for inhibition at 0.34 % strength: 0.34 % by weight in medium. The method, then: The inhibitory effect of methyl dihydrojasmonate on the growth of mites was evaluated in accordance with the following method. • 1. Mite (or Mites) under test: Dermatophagoides farinae Hughes. • 2. Testing method:
After a predetermined amount of methyl dihydrojasmonate diluted with ethanol was added to mite-free sterilized medium (10 g; MF powder feed; Oriental Yeast Co., Ltd.), and both were mixed, the mixture was air-dried at room temperature for at least 3 hours to provide a treated group. A medium mixed with ethanol was provided as a control group. Mites sufficiently grown with the same medium as described above in advance were fully mixed with the medium, and this mixture (1 g) was mixed into the test medium containing methyl dihydrojasmonate and control medium, respectively. After fully stirred, the mites were raised at 25° C. for 22 days. A sample (0.1 g) was taken out of each medium to count the number of active mites through a microscope, thereby calculating out a mite growth-inhibiting rate. Incidentally, the test was repeated 3 times to conduct the evaluation in terms of the average value thereof. Mite growth-inhibiting rate={(T−S)/T}×100 (%) wherein T is the number of viable mites in the control group, and S in the number of viable mites in the treated group.

[4] abbreviates: concentration of compound 100 μg/cm^2 on black paper.
Setting [5] is: concentration of compound 1,000 μg/cm^2 on black paper.
Where [6] appears, read: 8th day, read-out: Growth-inhibiting rate on the 8th day.
Where [7] appears, read: 22nd day, read-out: Growth-inhibiting rate on the 22nd day.

The structures appear in SMILES notation. Read-outs that look alike come from different tables or passages of the source.

For the compound `C=C(C)C1CC=C(C)C(=O)C1` (stereo not drawn) [Carvone, reference compound], the Repelling rate is listed as 10% in assay [1] (setting [4]) and 29% in assay [1] (setting [5]).
In the case of `CCCCCC1=C(C)CCC1=O` [Dihydrojasmone], the Repelling rate in assay [1] (setting [4]) was 80%; in assay [1] (setting [5]) it was 83%.
Consider `CC(C)=CCCC(C)=CCCC(C)=CCO` [Farnesol], for which the Compensated lethality is 63% in assay [2] (incubation time 24 hr) and 77% in assay [2] (incubation time 48 hr). The figures for the Repelling rate in assay [1] (setting [4]) and in assay [1] (setting [5]) were 94% and 96%, respectively.
In the case of `C=CC(C)(O)CCC=C(C)C` (stereo not drawn) [Linalool, reference compound], the Repelling rate came to 47% in assay [1] (setting [4]) and 57% in assay [1] (setting [5]).
Regarding `CCCCCC1C(=O)CCC1CC(=O)OC` (stereo not drawn) [Methyl dihydrojasmonate], in assay [2] (incubation time 24 hr), the Compensated lethality came out at 100%. The Compensated lethality in assay [2] (incubation time 48 hr) is on record as 100%. Moreover, in assay [3] (setting [6]), the inhibition at 0.045 % strength was 75%, the inhibition at 0.12 % strength came out at 86%, the inhibition at 0.23 % strength was 93% and the inhibition at 0.34 % strength amounted to 92%. For the same compound, in assay [3] (setting [7]), the inhibition at 0.045 % strength was determined as 54%, the inhibition at 0.12 % strength stood at 61%, the inhibition at 0.23 % strength worked out at 69% and the inhibition at 0.34 % strength was determined as 80%. Also, the Repelling rate in assay [1] (setting [4]) was 90%. In addition, the Repelling rate in assay [1] (setting [5]) was found to be 94%.
Take `CC/C=C\CC1C(=O)CCC1CC(=O)OC` (stereo not drawn) [Methyl jasmonate]: the Repelling rate in assay [1] (setting [4]) worked out at 93%; in assay [1] (setting [5]) it was 97%.
For `C=CC(C)(O)CCC=C(C)CCC=C(C)C` (stereo not drawn) [Nerolidol], the Repelling rate is given as 80% in assay [1] (setting [4]) and 79% in assay [1] (setting [5]).
On the same counts, the results for `C/C(=C\CO)CCC[C@H](C)CCC[C@H](C)CCCC(C)C` [Phytol] are 52% and 72%.
For `CC/C=C\CC1=C(C)CCC1=O` [cis-Jasmone] the same measures were 72% and 85%.
